From PubChem BioAssay (NCI)
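Each compound was tested at five concentrations against cells in 96-well plates for 48 hours. Abbreviation: GI50, concentration required for 50% inhibition of growth. The concentration for full growth arrest is given as TGI.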

Experiments:
Experiment in all cases: inhibition of tumour cell growth, NCI panel, 48 h
NCI-H23 lung = test system: NCI-H23 lung
HS 578T breast = test system: HS 578T breast
BT-549 breast = test system: BT-549 breast
SNB-19 CNS = test system: SNB-19 CNS
NCI-H522 lung = test system: NCI-H522 lung
786-0 renal = test system: 786-0 renal
HT29 colon = test system: HT29 colon
HCT-116 colon = test system: HCT-116 colon
MDA-MB-231 breast = test system: MDA-MB-231 breast
DU-145 prostate = test system: DU-145 prostate
MCF7 breast = test system: MCF7 breast
ACHN renal = test system: ACHN renal
SF-539 CNS = test system: SF-539 CNS
PC-3 prostate = test system: PC-3 prostate
HOP-62 NSCLC = test system: HOP-62 NSCLC
NCI-H460 lung = test system: NCI-H460 lung
SK-MEL-28 melanoma = test system: SK-MEL-28 melanoma
SF-295 CNS = test system: SF-295 CNS
UACC-62 melanoma = test system: UACC-62 melanoma
HOP-92 NSCLC = test system: HOP-92 NSCLC
NCI-H226 lung = test system: NCI-H226 lung
MOLT-4 leukemia = test system: MOLT-4 leukemia
OVCAR-3 ovarian = test system: OVCAR-3 ovarian
T-47D breast = test system: T-47D breast
SR leukemia = test system: SR leukemia
A498 renal = test system: A498 renal
SN12C renal = test system: SN12C renal
SK-OV-3 ovarian = test system: SK-OV-3 ovarian
M14 melanoma = test system: M14 melanoma
COLO 205 colon = test system: COLO 205 colon
HL-60(TB) leukemia = test system: HL-60(TB) leukemia
OVCAR-8 ovarian = test system: OVCAR-8 ovarian
TK-10 renal = test system: TK-10 renal
MALME-3M melanoma = test system: MALME-3M melanoma
SF-268 CNS = test system: SF-268 CNS
CAKI-1 renal = test system: CAKI-1 renal
LOX IMVI melanoma = test system: LOX IMVI melanoma
CCRF-CEM leukemia = test system: CCRF-CEM leukemia
MDA-MB-435 = test system: MDA-MB-435
A549 NSCLC = test system: A549 NSCLC
K-562 leukemia = test system: K-562 leukemia
UACC-257 melanoma = test system: UACC-257 melanoma
HCC-2998 colon = test system: HCC-2998 colon
NCI/ADR-RES ovarian = test system: NCI/ADR-RES ovarian
EKVX NSCLC = test system: EKVX NSCLC
OVCAR-5 ovarian = test system: OVCAR-5 ovarian
RXF 393 renal = test system: RXF 393 renal
U251 CNS = test system: U251 CNS
RPMI-8226 leukemia = test system: RPMI-8226 leukemia
SK-MEL-5 melanoma = test system: SK-MEL-5 melanoma
UO-31 renal = test system: UO-31 renal
SW-620 colon = test system: SW-620 colon
KM12 colon = test system: KM12 colon
IGROV1 ovarian = test system: IGROV1 ovarian
HCT-15 colon = test system: HCT-15 colon
SNB-75 CNS = test system: SNB-75 CNS
OVCAR-4 ovarian = test system: OVCAR-4 ovarian
SK-MEL-2 melanoma = test system: SK-MEL-2 melanoma

Structure (SMILES): COc1cc(NC(=O)c2ccc(C(F)(F)F)nc2Nc2cc(Cl)ccc2C)cc(OC)c1OC
- GI50 (NCI-H23 lung): 3.06 µM
- TGI (NCI-H23 lung): 27.8 µM
- GI50 (HS 578T breast): 3.9 µM
- TGI (HS 578T breast): 19.4 µM
- GI50 (BT-549 breast): 6.56 µM
- TGI (BT-549 breast): 21.4 µM
- GI50 (SNB-19 CNS): 10.4 µM
- TGI (SNB-19 CNS): 30.5 µM
- GI50 (NCI-H522 lung): 2.93 µM
- TGI (NCI-H522 lung): 18.2 µM
- GI50 (786-0 renal): 4.72 µM
- TGI (786-0 renal): 21.4 µM
- GI50 (HT29 colon): 8.12 µM
- TGI (HT29 colon): 22.9 µM
- GI50 (HCT-116 colon): 2.93 µM
- TGI (HCT-116 colon): 14.1 µM
- GI50 (MDA-MB-231 breast): 2.94 µM
- TGI (MDA-MB-231 breast): 14.3 µM
- GI50 (DU-145 prostate): 12.6 µM
- TGI (DU-145 prostate): 39.6 µM
- GI50 (MCF7 breast): 3.78 µM
- TGI (MCF7 breast): 27.4 µM
- GI50 (ACHN renal): 5.13 µM
- TGI (ACHN renal): 34 µM
- GI50 (SF-539 CNS): 9.89 µM
- TGI (SF-539 CNS): 50.8 µM
- GI50 (PC-3 prostate): 1.89 µM
- TGI (PC-3 prostate): 12.2 µM
- GI50 (HOP-62 NSCLC): 5.1 µM
- TGI (HOP-62 NSCLC): 16.6 µM
- GI50 (NCI-H460 lung): 6 µM
- TGI (NCI-H460 lung): 21.3 µM
- GI50 (SK-MEL-28 melanoma): 8.74 µM
- TGI (SK-MEL-28 melanoma): 27 µM
- GI50 (SF-295 CNS): 5.66 µM
- TGI (SF-295 CNS): 24.4 µM
- GI50 (UACC-62 melanoma): 2.53 µM
- TGI (UACC-62 melanoma): 17 µM
- GI50 (HOP-92 NSCLC): 0.801 µM
- TGI (HOP-92 NSCLC): 11 µM
- GI50 (NCI-H226 lung): 11.2 µM
- TGI (NCI-H226 lung): 32.8 µM
- TGI (MOLT-4 leukemia): 0.823 µM
- GI50 (OVCAR-3 ovarian): 6.47 µM
- TGI (OVCAR-3 ovarian): 34.1 µM
- GI50 (T-47D breast): 3.99 µM
- TGI (T-47D breast): 27.1 µM
- GI50 (SR leukemia): 0.215 µM
- TGI (SR leukemia): 1.57 µM
- GI50 (A498 renal): 4.14 µM
- TGI (A498 renal): 18.2 µM
- GI50 (SN12C renal): 7.76 µM
- TGI (SN12C renal): 24.2 µM
- GI50 (SK-OV-3 ovarian): 7.69 µM
- TGI (SK-OV-3 ovarian): 29.6 µM
- GI50 (M14 melanoma): 4.64 µM
- TGI (M14 melanoma): 20.8 µM
- GI50 (COLO 205 colon): 7 µM
- TGI (COLO 205 colon): 20.6 µM
- GI50 (HL-60(TB) leukemia): 0.194 µM
- TGI (HL-60(TB) leukemia): 7.8 µM
- GI50 (OVCAR-8 ovarian): 10.8 µM
- TGI (OVCAR-8 ovarian): > 80.1 µM
- GI50 (TK-10 renal): 15.8 µM
- TGI (TK-10 renal): > 67.9 µM
- GI50 (MALME-3M melanoma): 9.84 µM
- TGI (MALME-3M melanoma): 47.7 µM
- GI50 (SF-268 CNS): 6.63 µM
- TGI (SF-268 CNS): 27.8 µM
- GI50 (CAKI-1 renal): 4.88 µM
- TGI (CAKI-1 renal): 41.8 µM
- GI50 (LOX IMVI melanoma): 7.06 µM
- TGI (LOX IMVI melanoma): 20 µM
- GI50 (CCRF-CEM leukemia): 0.452 µM
- TGI (CCRF-CEM leukemia): 22 µM
- GI50 (MDA-MB-435): 4.94 µM
- TGI (MDA-MB-435): 34.2 µM
- GI50 (A549 NSCLC): 6 µM
- TGI (A549 NSCLC): 45.7 µM
- GI50 (K-562 leukemia): 1.77 µM
- TGI (K-562 leukemia): 25.9 µM
- GI50 (UACC-257 melanoma): 4.55 µM
- TGI (UACC-257 melanoma): 19.7 µM
- GI50 (HCC-2998 colon): 0.985 µM
- TGI (HCC-2998 colon): 15 µM
- GI50 (NCI/ADR-RES ovarian): 5.91 µM
- TGI (NCI/ADR-RES ovarian): 48.3 µM
- GI50 (EKVX NSCLC): 4.54 µM
- TGI (EKVX NSCLC): 37.6 µM
- GI50 (OVCAR-5 ovarian): 12.3 µM
- TGI (OVCAR-5 ovarian): 35.6 µM
- GI50 (RXF 393 renal): 6.52 µM
- TGI (RXF 393 renal): 27.9 µM
- GI50 (U251 CNS): 4.27 µM
- TGI (U251 CNS): 16.9 µM
- GI50 (RPMI-8226 leukemia): 1.18 µM
- TGI (RPMI-8226 leukemia): 16.3 µM
- GI50 (SK-MEL-5 melanoma): 1.75 µM
- TGI (SK-MEL-5 melanoma): 12.3 µM
- GI50 (UO-31 renal): 3.48 µM
- TGI (UO-31 renal): 16 µM
- GI50 (SW-620 colon): 6.49 µM
- TGI (SW-620 colon): 21.6 µM
- GI50 (KM12 colon): 4.51 µM
- TGI (KM12 colon): 22 µM
- GI50 (IGROV1 ovarian): 0.852 µM
- TGI (IGROV1 ovarian): 20.2 µM
- GI50 (HCT-15 colon): 4.35 µM
- TGI (HCT-15 colon): 19 µM
- GI50 (SNB-75 CNS): 3.07 µM
- TGI (SNB-75 CNS): 24.4 µM
- GI50 (OVCAR-4 ovarian): 3.16 µM
- TGI (OVCAR-4 ovarian): 43.5 µM
- GI50 (SK-MEL-2 melanoma): 8.16 µM
- TGI (SK-MEL-2 melanoma): 28.6 µM
